Results on three compounds are retold here after patent publication US20260294925A1, “CELL PROLIFERATION MODULATORS AND USES THEREOF” (Kumquat Biosciences Inc., priority 2023, published 2026).

The structures appear in SMILES notation.

A short description of series [1]: Toxicity / body weight observation in Ba/F3 allograft mice. The class given is in vivo, mouse. The following applies: Ba/F3 T315I allograft NOD/SCID mice, oral gavage, single agents and combinations. The source says: Mice were maintained under specific pathogen-free conditions, and food and water were provided ad libitum. A mouse Ba/F3 cell line that expresses a p210 […] fusion and T315I mutation was implanted subcutaneously (1×10^6 cells per mouse) into the right flank of female 6- to 8-week-old NOD/SCID mice. Mice were monitored daily, weighed up to three times weekly, and caliper measurements began when tumors became visible. Animals were randomly assigned to treatment groups as indicated in FIG. 2 by an algorithm that assigns animals to groups to achieve best case distributions of mean tumor size with lowest possible standard deviation. Tumor volume was calculated by measuring two perpendicular diameters using the following formula: (L×w^2)/2, in which L and w refer to the length and width of the tumor diameter, respectively. When tumors reached an average size of ~100 mm^3, mice were randomized and treated with vehicle, a SOS1 inhibitor of the present disclosure (Compound A), asciminib, ponatinib, Compound A and asciminib, or Compound A and ponatinib by oral gavage at the indicated dose and schedule.

The test system of the next series is KCL22-r xenograft. The series is described as follows: KCL22-r (dasatinib-refractory) xenograft study (FIG. 7). In kind it is in vivo, mouse. The following applies: dasatinib monotherapy. The method, then: Mice were maintained under specific pathogen-free conditions, and food and water were provided ad libitum. Female 6- to 8-week-old athymic BALB/c nude (NCr) nu/nu mice were used to inoculate Ph+ CML cell lines. For example, KCL22-s cells (5×10^6) were harvested on the day of use and injected in growth-factor-reduced Matrigel/PBS (50% final concentration in 100 μL). One flank was inoculated subcutaneously per mouse. Mice were monitored daily, weighed twice weekly, and caliper measurements began when tumors became visible. Animals were randomly assigned to treatment groups as indicated in FIG. 1 by an algorithm that assigns animals to groups to achieve best case distributions of mean tumor size with lowest possible standard deviation. Tumor volume was calculated by measuring two perpendicular diameters using the following formula: (L×w^2)/2, in which L and w refer to the length and width of the tumor diameter, respectively. When tumors reached an average size of 100 mm^3, mice were randomized and treated with vehicle (20% Dexolve) or indicated compounds using a daily or twice daily schedule by oral gavage. Results are expressed as mean and […]. […] Combination treatment with dasatinib renders more than 90% complete responses. […]

Regarding `O=C(Nc1ccc(OC(F)(F)Cl)cc1)c1cnc(N2CC[C@@H](O)C2)c(-c2ccn[nH]2)c1` [asciminib], the “toxicity or body weight loss” value in series [1] was “No apparent toxicity or body weight loss was observed”.
For the compound `Cc1nc(Nc2ncc(C(=O)Nc3c(C)cccc3Cl)s2)cc(N2CCN(CCO)CC2)n1` [dasatinib], in the series on KCL22-r xenograft, the “response of KCL22-r model to dasatinib” value was “dasatinib-refractory tumor”.
Turning to `Cc1ccc(C(=O)Nc2ccc(CN3CCN(C)CC3)c(C(F)(F)F)c2)cc1C#Cc1cnc2cccnn12` [ponatinib], the “toxicity or body weight loss” value in series [1] is on record as “No apparent toxicity or body weight loss was observed”.
